Molecular target: T1, malate dehydrogenase (Mdh3) (Cryptococcus neoformans, UniProt J9VXN5)
T1 construct: gene CNAG_03225; Mdh3-MBP fusion protein expressed in S. cerevisiae
T1 sequence (J9VXN5 1-338): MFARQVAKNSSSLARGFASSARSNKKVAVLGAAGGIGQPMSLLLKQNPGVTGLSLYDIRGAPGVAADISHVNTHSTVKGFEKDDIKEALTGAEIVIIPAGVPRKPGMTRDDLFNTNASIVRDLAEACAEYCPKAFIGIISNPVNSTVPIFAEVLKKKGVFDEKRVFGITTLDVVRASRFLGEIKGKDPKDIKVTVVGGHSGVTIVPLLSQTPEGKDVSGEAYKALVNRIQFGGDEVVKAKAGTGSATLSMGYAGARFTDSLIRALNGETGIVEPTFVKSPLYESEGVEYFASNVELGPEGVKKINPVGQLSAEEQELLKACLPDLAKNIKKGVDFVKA
Assay: steady-state enzyme kinetics with recombinant Mdh3-MBP, NAD turnover at […] nm, with or without […] bithionol
Format: biochemical

Ki: 3 µM
Structure (SMILES): Oc1c(Cl)cc(Cl)cc1Sc1cc(Cl)cc(Cl)c1O [bithionol]

Reference: PMC4981720, “Identification of Multiple Cryptococcal Fungicidal Drug Targets by Combined Gene Dosing and Drug Affinity Responsive Target Stability Screening” (mBio, 2016)
